# According to patent publication US20110077270A1, “Compositions and Methods for Treating Ocular Inflammation with Lower Risk of Increased Intraocular Pressure” (priority 2009, published 2011):
# Several values for one entry are separate records, joined by “and”; a condition that tells them apart may be missing. Identical values can stand only once.
# Columns and labels:
# Assay type in all cases: in vivo
# [1] = tested on: rabbit paracentesis model; assay: Pupillary diameter measurement, rabbit paracentesis model; settings: individual eye; for Pupillary diameter T1: −180 min: 50 μl drops, basal; for Pupillary diameter T2: −5 min: 5 min before first paracentesis; for Pupillary diameter T3: +115 min: 5 min before second paracentesis; for Pupillary diameter Δ(T3 − T1): +115 min minus −180 min
# Procedure: (§1) Each rabbit was placed in a restraint device and tagged with the alphanumeric code. The formulations were instilled (50 μl) into the conjunctival sac of both eyes 180, 120, 90 and 30 min before the first paracentesis; then 15, 30, 90 min after the first paracentesis. To perform the first paracentesis the animals were anaesthetized by intravenous injection of 5 mg/kg Zoletil® (Virbac; 2.5 mg/kg tiletamine HCl and 2.5 mg/kg zolazepam HCl) and one drop of local anesthetic (Novesina®, Novartis) was administered to the eye. Anterior chamber paracentesis was performed with a 26 G needle attached to a tuberculin syringe; the needle was introduced into the anterior chamber through the cornea, taking care not to damage the tissues. Two hours after the first paracentesis, the animals were sacrificed with 0.4 ml Tanax® (Intervet International B.V.) and the second paracentesis was performed. About 100 μl of aqueous humor were removed at the second paracentesis. Aqueous humor was immediately split in four aliquots and stored at −80° C. until analysis. Then both eyes were enucleated and the iris-ciliary body was carefully excised, placed in polypropylene tubes, and stored at −80° C. until analysis.
# The pupillary diameter of both eyes was measured with a Castroviejo caliper 180 min and 5 min before the first paracentesis and 5 min before the second paracentesis.
# [2] = tested on: rabbit paracentesis model; assay: Clinical evaluation (slit lamp clinical score), rabbit paracentesis model; parameters: key to Clinical Score −180 min / Clinical Score −5 min / Clinical Score +115 min: 0: normal; 1: discrete dilatation of iris and conjunctival vessels; 2: moderate dilatation of iris and conjunctival vessels; 3: intense iridal hyperemia with flare in the anterior chamber; 4: intense iridal hyperemia with flare in the anterior chamber and presence of fibrinous exudates; settings: for Clinical Score −5 min: 5 min before first paracentesis; for Clinical Score −5 min / Clinical Score +115 min / Clinical Score −180 min: individual eye; for Clinical Score +115 min: 5 min before second paracentesis; for Clinical Score −180 min: basal
# [3] = tested on: PGE2 in the aqueous humor; assay: Prostaglandin E2 (PGE2) measurement in aqueous humor, rabbit paracentesis model; settings: second paracentesis; for PGE2 level in aqueous humor, Mean: group mean; for PGE2 level in aqueous humor: individual eye
# Procedure: as §1
# For the quantitative determination of PGE2 in the aqueous humor we used the PGE2 Immunoassay kit (R&D Systems; Cat. No. KGE004; Lot. No. 240010). Eleven microliters or 16 μl of aqueous humor were diluted to 110 μl or 160 μl with the calibrator diluent solution provided with the kit. One hundred microliters of samples and of standards were load into a 96-well plate and recorded in a plate layout. Samples were treated following the assay procedure described in the kit. A microplate reader (GDV, Italy; model DV 990 B/V6) set at 450 nm (wavelength correction at 540 nm) was used for making the calibration and analyzing the samples.
# [4] = tested on: protein concentration in the aqueous humor; assay: Protein measurement in aqueous humor, rabbit paracentesis model; settings: second paracentesis; for Protein level in aqueous humor, Mean: group mean; for Protein level in aqueous humor: individual eye
# Procedure: as §1
# For protein concentration determination in the aqueous humor we used the Protein Quantification Kit (Fluka; Cat. No. 77371; Lot. No. 1303129). Five microliters of aqueous humor were diluted to 100 μl with water. Twenty microliters of samples and of standards were load into a 96-well plate and recorded in a plate layout. Samples were treated following the assay procedure described in the kit. A microplate reader (GDV, Italy; model DV 990 B/V6) set at 670 nm was used for making the calibration and analyzing the samples.
# [5] = tested on: leukocytes (PMN) in aqueous humor; assay: Leukocytes (PMN) measurement in aqueous humor, rabbit paracentesis model; settings: second paracentesis; for PMN numbers in aqueous humor: individual eye
# Procedure: as §1
# For the determination of the number of leukocytes we used a haemocytometer (Improved Neubauer Chamber; Bright-line, Hausser Scientific) and a Polyvar 2 microscope (Reichert-Jung).
# [6] = tested on: MPO activity in iris-ciliary body; assay: Myeloperoxidase (MPO) activity in iris-ciliary body, rabbit paracentesis model; settings: for MPO Unit/g: iris-ciliary body samples collected after the second paracentesis, individual eye samples; for MPO activity in iris-ciliary body, Mean: after second paracentesis, group mean
# Procedure: as §1
# The activity of MPO was measured as previously described by Williams et al.[5] The iris-ciliary bodies were carefully dried, weighed and immersed in 1 ml of hexa-decyl-trimethyl-ammonium bromide solution. Then, the samples were sonicated for 10 sec on ice by a ultrasound homogenizer (HD 2070, Bandelin electronic), freeze-thawed three times, sonicated for 10 sec and centrifuged at 14,000 g for 10 min to remove cellular debris. An aliquot of the supernatant ([…] was diluted to 3 ml with the o-dianisidine 2HCl/H2O2 solution. The change in absorbance at 460 nm was continuously monitored for 5 min by a spectrophotometer (UV/Vis Spectrometer Lambda EZ 201; Perkin Elmer). The slope of the line (Δ/min) was determined for each sample and used to calculate the number of units of MPO in the tissue as follows:
# were ε=11.3 mM^−1. Values were expressed as units of MPO/g of tissue.
# [7] = 0.5% topical formulation, +115 min
structure (smiles),measurement,setting,value
"CC(C(=O)O)c1ccc(-c2ccccc2)c(F)c1 (centres unmarked) [F, flurbiprofen, reference compound]",Pupillary diameter T1: −180 min,[1]; 0.03% topical formulation,5.0 mm (2×) and 7.0 mm and 6.0 mm (4×) and 5.5 mm
same,Pupillary diameter T2: −5 min,[1]; 0.03% topical formulation,6.0 mm (3×) and 6.5 mm (3×) and 7.0 mm and 5.5 mm
same,Pupillary diameter T3: +115 min,[1]; 0.03% topical formulation,4.0 mm and 3.5 mm and 5.5 mm (2×) and 5.0 mm (2×) and 4.5 mm and 6.0 mm
same,Pupillary diameter Δ(T3 − T1),[1]; 0.03% topical formulation,−1.0 mm (3×) and −1.5 mm (3×) and 0.0 mm (2×)
same,Clinical Score −5 min,[2]; 0.03% topical formulation,0
same,Clinical Score +115 min,[2]; 0.03% topical formulation,2
same,Percentage of eyes with clinical score 2,"[2]; 0.03% topical formulation, +115 min",100%
same,Clinical Score −180 min,[2]; 0.03% topical formulation,0
same,Percentage of eyes with clinical score 0,"[2]; 0.03% topical formulation, −5 min",100%
same,Percentage of eyes with clinical score 0,"[2]; 0.03% topical formulation, −180 min (basal)",100%
same,"PGE2 level in aqueous humor, Mean",[3]; 0.03% topical formulation,1.189 ng/mL
same,PGE2 level in aqueous humor,[3]; 0.03% topical formulation,1.04 ng/ml and 0.75 ng/ml and 0.85 ng/ml and 1.11 ng/ml and 2.11 ng/ml (2×) and 0.93 ng/ml and 0.61 ng/ml
same,"Protein level in aqueous humor, Mean",[4]; 0.03% topical formulation,20.910 mg/mL
same,Protein level in aqueous humor,[4]; 0.03% topical formulation,20.78 mg/mL and 28.80 mg/mL and 23.41 mg/mL and 20.21 mg/mL and 17.53 mg/mL and 15.12 mg/mL and 20.52 mg/mL
same,PMN numbers in aqueous humor,[5]; 0.03% topical formulation,50 number/μl and 40 number/μl (2×) and 20 number/μl (2×) and 10 number/μl and 30 number/μl
same,MPO Unit/g,[6]; 0.03% F,1.10 Unit/g and 1.70 Unit/g and 0.34 Unit/g and 0.75 Unit/g and 0.74 Unit/g and 0.63 Unit/g and 0.73 Unit/g and 1.27 Unit/g
same,"MPO, p vs CTR",[6]; 0.03% topical formulation,< 0.01
same,"MPO activity in iris-ciliary body, Mean",[6]; 0.03% topical formulation,0.906 MPO Unit/g
"CCOC(=O)O[C@]1(C(=O)OCCl)CC[C@H]2[C@@H]3CCC4=CC(=O)C=C[C@]4(C)[C@H]3[C@@H](O)C[C@@]21C [LE, loteprednol etabonate, reference compound]",Pupillary diameter T1: −180 min,[1]; 0.5% topical formulation,6.0 mm (3×) and 6.5 mm (5×)
same,Pupillary diameter T2: −5 min,[1]; 0.5% topical formulation,6.0 mm (3×) and 6.5 mm (5×)
same,Pupillary diameter T3: +115 min,[1]; 0.5% topical formulation,4.5 mm and 5.0 mm (2×) and 5.5 mm (2×) and 6.0 mm (3×)
same,Pupillary diameter Δ(T3 − T1),[1]; 0.5% topical formulation,−1.5 mm (2×) and −1.0 mm (3×) and 0.0 mm and −0.5 mm (2×)
same,Clinical Score −5 min,[2]; 0.5% topical formulation,0
same,Clinical Score +115 min,[2]; 0.5% topical formulation,2 (2×) and 1 (6×)
same,Percentage of eyes with clinical score 1,[2]; [7],75%
same,Percentage of eyes with clinical score 2,[2]; [7],25%
same,"Clinical score, p versus CTR","[2]; 0.5% topical formulation, Kruskal-Wallis, Dunn",< 0.05
same,Clinical Score −180 min,[2]; 0.5% topical formulation,0
same,Percentage of eyes with clinical score 0,"[2]; 0.5% topical formulation, −5 min",100%
same,Percentage of eyes with clinical score 0,"[2]; 0.5% topical formulation, −180 min (basal)",100%
same,"PGE2 level in aqueous humor, Mean",[3]; 0.5% topical formulation,0.672 ng/mL
same,PGE2 level in aqueous humor,[3]; 0.5% topical formulation,^2N/D and 0.23 ng/ml and 0.68 ng/ml and 1.10 ng/ml
same,"Protein level in aqueous humor, Mean",[4]; 0.5% topical formulation,33.905 mg/mL
same,Protein level in aqueous humor,[4]; 0.5% topical formulation,36.14 mg/mL and 39.10 mg/mL and 34.69 mg/mL and 26.10 mg/mL and 26.30 mg/mL and 28.16 mg/mL and 40.90 mg/mL and 39.85 mg/mL
same,"PMN numbers in aqueous humor, Mean","[5]; 0.5% topical formulation, group mean",28.333 number/μl
same,PMN numbers in aqueous humor,[5]; 0.5% topical formulation,40 number/μl (2×) and 20 number/μl (3×) and 30 number/μl
same,MPO Unit/g,[6]; 0.5% LE,0.30 Unit/g and 0.51 Unit/g and 0.81 Unit/g and 0.60 Unit/g and 0.73 Unit/g and 1.01 Unit/g
same,"MPO activity in iris-ciliary body, Mean",[6]; 0.5% topical formulation,0.661 MPO Unit/g
